Entries after “also recorded” stand apart in the source; their conditions may differ. Read-outs that look alike come from different tables or passages of the source.
What was measured:
zebrafish larvae = test: Melanogenesis (depigmentation) assay using zebrafish embryos; assay type: in vivo; conditions: for depigmentation of zebrafish larvae at 0.1 mM / depigmentation of zebrafish larvae at 0.03 mM: compared with kojic acid 20 mM; for pigmentation area of zebrafish larvae (CS analyzer, dorsal and lateral views): derivatives 0.03 and 0.1 mM, kojic acid 20 mM
Procedure: To assess depigmentation in vivo, wild-type zebrafish (Danio rerio) embryos were acquired free of charge from the Zebrafish Center for Disease Modeling (ZCDM) located at Chungnam National University in Daejeon, Republic of Korea. The zebrafish were raised in tanks maintained at 28 °C in the ZCDM. The tanks were oxygenated, and the tank lights were turned off for 10 h and on for 14 h. The zebrafish embryos used for in vivo depigmentation experiments were obtained through natural mating. The E3 solution for zebrafish embryos was prepared by dissolving 19.9 mg magnesium sulfate, 6.4 mg potassium chloride, 18.3 mg calcium chloride, and 146.1 mg sodium chloride in 500 mL distilled water. E3-MB (methylene blue) solution was prepared by adding MB to the E3 solution to create a 0.001% MB solution. The acquired zebrafish embryos were transferred to a culture dish containing the E3-MB solution. The culture dish was incubated at 28 °C until zebrafish embryos were used. Since zebrafish embryos are sensitive and can be easily killed by the chorion removal process 20 h post-fertilization (20 hpf), the chorion was removed at 24 hpf through treatment with pronase (Sigma-Aldrich, St. Louis, MO, USA). Five dechorionated zebrafish embryos were transferred to each well of 48-well microplates containing 250 μL E3 solution. […] Zebrafish larvae were anesthetized with tricaine at 76 hpf and placed on a 1% methylcellulose block to determine the degree of zebrafish larva depigmentation. Dorsal and lateral images of the zebrafish larvae were acquired using an SMZ745T microscope (Nikon, Tokyo, Japan). The pigmented areas of the dorsal and lateral images were obtained using CS analyzer 3.0 image analysis software (ATTO, Tokyo, Japan). Each assay (n = 7) was independently performed two times.

[1] = Reactive oxygen species removal activity assay (SIN-1, DCFH); conditions: test samples 40 μM; SIN-1 10 μM
Procedure: To assess reactive oxygen species (ROS) removal activity, a DCFH solution was prepared by mixing 50 μL DCFH-DA (1.25 mM), 50 μL esterase (0.6 unit/μL), and 4.9 mL phosphate buffer (50 mM) and maintained in the dark for 30 min. The SIN-1 solution (10 μL) was added to each well of a 96-black well that contained the test sample (10 μL; 2-MMBI derivatives 1–10 and Trolox [positive material]) and phosphate buffer (180 μL). 2-MMBI derivatives, Trolox, and SIN-1 were exposed at final concentrations of 40, 40, and 10 μM, respectively. The prepared DCFH solution (50 μL) was added to each well after 10 min. The fluorescence intensity of 2′,7′-dichlorofluorescein in the wells was measured at 535 nm using a microplate reader (Berthold Advances GmbH & Co., Bad Wildbad, Germany) with an excitation wavelength of 485 nm. Each experiment was conducted independently four times.

B16F10 cellular TYR = biological target: T1, B16F10 cellular TYR (Mus musculus, UniProt P11344); test: TYR activity assay in B16F10 cells; assay type: cell-based, murine; conditions: 2, 5, and 10 μM; α-MSH 1 μM plus IBMX 200 μM; 72 h
T1 construct: The in situ cellular TYR activities of the 2-MMBI derivatives were investigated using B16F10 cells; endogenous in cells; host or cells: B16F10 murine melanoma cells stimulated with alpha-MSH and IBMX
T1 sequence (P11344 19-533): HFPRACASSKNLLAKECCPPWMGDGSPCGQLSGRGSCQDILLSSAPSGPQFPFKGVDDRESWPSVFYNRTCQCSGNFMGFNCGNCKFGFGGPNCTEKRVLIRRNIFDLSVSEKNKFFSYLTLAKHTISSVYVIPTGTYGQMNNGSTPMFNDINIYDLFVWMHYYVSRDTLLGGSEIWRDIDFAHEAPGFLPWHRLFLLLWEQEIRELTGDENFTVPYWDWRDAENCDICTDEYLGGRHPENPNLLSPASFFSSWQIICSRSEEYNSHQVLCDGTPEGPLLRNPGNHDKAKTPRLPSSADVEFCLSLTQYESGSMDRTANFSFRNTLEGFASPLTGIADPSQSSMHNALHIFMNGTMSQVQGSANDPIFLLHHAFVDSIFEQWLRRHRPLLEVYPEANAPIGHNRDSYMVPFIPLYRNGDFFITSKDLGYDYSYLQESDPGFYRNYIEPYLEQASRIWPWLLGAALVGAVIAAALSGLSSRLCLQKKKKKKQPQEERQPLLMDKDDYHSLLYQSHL
Procedure: A 6-well plate containing 5 × 10^3 B16F10 cells per well was incubated (37 °C and 5% CO2) for 1 day. […] Stimulators (1 μM α-MSH and 200 μM IBMX) were added after 1 h, and the plate was incubated (37 °C and 5% CO2) for 72 h. After washing with PBS, 100 μL lysis buffer consisting of 1% Triton X-100, 1 mM phenylmethylsulfonyl fluoride, and 50 mM sodium phosphate buffer (pH 6.5) in a volume ratio of 1:1:18 was added to each well. Following an incubation period of 30 min at −80 °C, the cell lysates were centrifuged at 12,000× g for 10 min at 4 °C to obtain the supernatants. […] Each assay was independently performed three times.

B16F10 cells = test: Melanin content measurement assay in B16F10 cells; assay type: cell-based, murine; conditions: α-MSH 1 μM plus IBMX 200 μM, 72 h; for effect on B16F10 cellular melanin production at three concentrations: 2, 5, and 10 μM
Procedure: A 6-well plate containing 5 × 10^3 B16F10 cells per well was incubated at 37 °C and 5% CO2 for 1 day. […] After 1 h, 1 μM α-MSH and 200 μM IBMX were added to each well, and the plate was subsequently incubated at 37 °C and 5% CO2 for 72 h. The cells were exposed to […] 1N-NaOH solution and cultured at 60 °C for 1 h after washing with PBS. The lysates were transferred to each well of a 96-well plate, and the optical density at 405 nm was recorded using a VersaMax™ reader. […] Each assay was independently performed three times.

B16F10 cell TYR = biological target: T2, B16F10 cell TYR (Mus musculus, UniProt P11344); test: In situ B16F10 cellular TYR activity assay (L-dopa staining); assay type: cell-based, murine; conditions: α-MSH plus IBMX 72 h; for in situ B16F10 cell TYR activity (cell staining), concentration series: 2, 5, and 10 μM
T2 construct: The in situ cellular TYR activities of the 2-MMBI derivatives were investigated using B16F10 cells; endogenous in cells; host or cells: B16F10 murine melanoma cells stimulated with alpha-MSH and IBMX
T2 sequence (P11344 19-533): T1 sequence (P11344 19-533)
Procedure: B16F10 cells (2 × 10^3/well) were inoculated in each well of a 24-well microplate and cultured for 1 day in an incubator (37 °C and 5% CO2). […] Subsequently, stimulators (α-MSH [1 μM] and IBMX [200 μM]) were added to each well. […] Stained photographs were captured using a camera attached to a microscope (Motic, Hong Kong, China). Each assay was independently performed two times.

mushroom TYR [2] = biological target: T3, mushroom TYR (Agaricus bisporus, UniProt C7FF04); test: Mushroom TYR activity assay with and without CuSO4; assay type: biochemical; conditions: 20 μM derivative, L-tyrosine
T3 sequence (C7FF04 2-392): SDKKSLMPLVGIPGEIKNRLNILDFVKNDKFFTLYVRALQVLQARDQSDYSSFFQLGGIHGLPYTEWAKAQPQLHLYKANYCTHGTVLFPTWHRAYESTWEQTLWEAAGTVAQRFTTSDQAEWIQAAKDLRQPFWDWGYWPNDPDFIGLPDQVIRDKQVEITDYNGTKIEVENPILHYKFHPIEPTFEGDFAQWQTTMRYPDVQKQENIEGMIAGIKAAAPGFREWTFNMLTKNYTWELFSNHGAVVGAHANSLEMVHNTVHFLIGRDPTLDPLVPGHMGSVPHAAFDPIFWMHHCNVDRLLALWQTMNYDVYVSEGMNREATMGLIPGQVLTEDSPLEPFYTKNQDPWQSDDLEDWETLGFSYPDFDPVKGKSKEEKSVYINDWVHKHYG
Procedure: To determine whether copper(II) ions influence the TYR-inhibitory activity of 2-MMBI derivatives, the effects of these derivatives on mushroom TYR activity were measured with and without CuSO4. Briefly, mushroom TYR aqueous solution (20 μL, 1 unit/μL) was mixed with 2-MMBI derivatives (1, 3, and 8–10) (10 μL, final concentration: 20 μM) and with the substrate solution (170 μL), comprising 17.2 mM phosphate buffer (pH 6.5) and 345 μM L-tyrosine, in the presence or absence of CuSO4 (50 μL, final concentration: 50 μM) in each well of a 96-well plate. […] Each assay was carried out independently in triplicate.

mushroom TYR [3] = biological target: T3, mushroom TYR; test: Kinetic studies on mushroom TYR (Lineweaver–Burk and Dixon plots); assay type: biochemical; conditions: L-dopa as substrate
Procedure: Kinetic experiments were performed to obtain Lineweaver–Burk plots for the analysis of mushroom TYR kinetics. Mushroom TYR solution (20 μL, 150 units/mL) was added to each well of a 96-well microplate containing 2-MMBI derivatives (10 μL; 0, 7.5, 15, and 30 μM for 1; 0, 5, 10, and 20 μM for 3 and 8; and 0, 12.5, 25, and 50 μM for 9) and a substrate solution (170 μL) composed of sodium phosphate buffer (17.2 mM; pH 6.5) and L-dopa (various concentrations: 0.5, 1, 2, 4, 8, and 16 mM). […] Lineweaver–Burk plots for each 2-MMBI derivative were obtained by plotting the value of 1/[substrate] against the value of (min/ΔOD475). Lineweaver–Burk plots were transformed into corresponding Dixon plots by plotting the value of (min/ΔOD475) against the value of the 2-MMBI derivative concentration.

[4] = 0.03 and 0.1 mM, 48 h exposure from 28 hpf
[5] = CuSO4 50 μM added externally, read-out: inhibition of mushroom TYR activity with CuSO4
[6] = no CuSO4 added externally, read-out: inhibition of mushroom TYR activity without CuSO4

SMILES	effect on B16F10 cellular TYR activity (B16F10 cellular TYR)	effect on B16F10 cellular melanin production at 10 μM (B16F10 cells)	effect on B16F10 cellular melanin production at three concentrations (B16F10 cells)	inhibition at 20 µM (mushroom TYR [2]; [5])	inhibition at 20 µM (mushroom TYR [2]; [6])	inhibition mechanism (mushroom TYR [3])	also measured
FC(F)(F)c1ccc2[nH]c(CS)nc2c1 [Derivative 7, (5-(Trifluoromethyl)-1H-benzo[d]imidazol-2-yl)methanethiol]	significantly reduced stimulator-enhanced cellular TYR activity in a dose-dependent manner	inhibited melanin production more strongly than kojic acid; also recorded: strongest melanin inhibitory effect	significantly decreased the melanin levels increased by the stimulators in a concentration-dependent manner; also recorded: potently reduced the stimulator-induced increase in melanin content to the levels observed in the control group	–	–	–	zebrafish larvae death (zebrafish larvae; [4]): all zebrafish larvae died at the tested concentrations; ROS scavenging activity [1]: stronger ROS scavenging efficacy than the other derivatives; in situ B16F10 cell TYR activity (cell staining) at 10 μM (B16F10 cell TYR): inhibited in situ B16F10 cell TYR activity much more potently than kojic acid; in situ B16F10 cell TYR activity (cell staining), concentration series (B16F10 cell TYR): reduced the increase in cell staining induced by α-MSH and IBMX in a concentration-dependent manner
SCc1nc2ccccc2[nH]1 [Derivative 1, (1H-Benzo[d]imidazol-2-yl)methanethiol]	–	relatively low melanin inhibitory effect	–	76%	86 to 89%	competitive TYR inhibitors	depigmentation of zebrafish larvae at 0.1 mM (zebrafish larvae; 0.1 mM, 48 h): much more potent inhibition of melanin production in zebrafish larvae than kojic acid; pigmentation area of zebrafish larvae (CS analyzer, dorsal and lateral views) (zebrafish larvae): reduced the pigmentation area more strongly than kojic acid in a concentration-dependent manner
Fc1ccc2[nH]c(CS)nc2c1 [Derivative 4, (5-Fluoro-1H-benzo[d]imidazol-2-yl)methanethiol]	–	–	–	–	–	–	zebrafish larvae death (zebrafish larvae; [4]): all zebrafish larvae died at the tested concentrations
Cc1cc2nc(CS)[nH]c2cc1C [Derivative 10, (5,6-Dimethyl-1H-benzo[d]imidazol-2-yl)methanethiol]	significantly reduced stimulator-enhanced cellular TYR activity in a dose-dependent manner	inhibited melanin production more strongly than kojic acid	significantly decreased the melanin levels increased by the stimulators in a concentration-dependent manner	1%	60%	–	in situ B16F10 cell TYR activity (cell staining) at 10 μM (B16F10 cell TYR): inhibited in situ B16F10 cell TYR activity much more potently than kojic acid; in situ B16F10 cell TYR activity (cell staining), concentration series (B16F10 cell TYR): reduced the increase in cell staining induced by α-MSH and IBMX in a concentration-dependent manner
COc1ccc2[nH]c(CS)nc2c1 [Derivative 3, (5-Methoxy-1H-benzo[d]imidazol-2-yl)methanethiol]	significantly reduced stimulator-enhanced cellular TYR activity in a dose-dependent manner	inhibited melanin production more strongly than kojic acid	significantly decreased the melanin levels increased by the stimulators in a concentration-dependent manner	34%	86 to 89%	competitive TYR inhibitors	depigmentation of zebrafish larvae at 0.03 mM (zebrafish larvae; 48 h): much stronger depigmentation efficacy than kojic acid; depigmentation of zebrafish larvae at 0.1 mM (zebrafish larvae; 0.1 mM, 48 h): much more potent inhibition of melanin production in zebrafish larvae than kojic acid; pigmentation area of zebrafish larvae (CS analyzer, dorsal and lateral views) (zebrafish larvae): reduced the pigmentation area more strongly than kojic acid in a concentration-dependent manner
Cc1cccc2[nH]c(CS)nc12 [Derivative 9, (4-Methyl-1H-benzo[d]imidazol-2-yl)methanethiol]	–	–	–	54%	86 to 89%	mixed TYR inhibitors	–
SCc1nc2cc(Cl)ccc2[nH]1 [Derivative 2, (5-Chloro-1H-benzo[d]imidazol-2-yl)methanethiol]	–	–	–	–	–	–	depigmentation of zebrafish larvae at 0.03 mM (zebrafish larvae; 48 h): much stronger depigmentation efficacy than kojic acid; zebrafish larvae death at 0.1 mM (zebrafish larvae; 0.1 mM, 48 h exposure from 28 hpf): died; ROS scavenging activity [1]: stronger ROS scavenging efficacy than the other derivatives
N#Cc1ccc2[nH]c(CS)nc2c1 [Derivative 5, 2-(Mercaptomethyl)-1H-benzo[d]imidazole-5-carbonitrile]	–	–	–	–	–	–	depigmentation of zebrafish larvae at 0.03 and 0.1 mM (zebrafish larvae; 0.03 and 0.1 mM, 48 h): did not exhibit significant depigmentation
